How the values were obtained:
Assay type in all cases: in vivo, wistar rats
[1] = test system: HIF-1α; assay: Bleomycin induced lung fibrosis in rats: HIF-1 alpha in lung tissue homogenate; conditions: 14 days; for reduction in HIF-α levels: compared to pulmonary fibrosis control group (138.6 pg/ml); for reduction in HIF-α levels / HIF-α levels: iso-garcinol 10 mg/kg, octahydrocurcumin 150 mg/kg bodyweight, individually and in combination; for HIF-α levels: control group 138.6 pg/ml
Description: (§1) After overnight fasting, the wistar rats were anesthetized (60 mg/kg ketamine HCl and 5 mg/kg xylazine) and a midline incision was made in the neck and the trachea was exposed. A tracheal cannula was inserted under direct visualization into the trachea. Pulmonary fibrosis was induced by intratracheal administration of single dose 0.1 mL of bleomycin (5 mg/kg in 0.9% NaCl). Treatment with the test material was given 5 min after administration of bleomycin for 14 consecutive days. After 14 days, BALF (bronchoalveolar lavage fluid) was obtained. Lung tissue was weighed to determine the lung index. Lung homogenate was stored at −80° C. for analysis of bio-markers. (Yildirim A, Ersoy Y, Ercan F et al., “Phosphodiesterase-5 inhibition by sildenafil citrate in a rat model of bleomycin-induced lung fibrosis,” Pulmonary Pharmacol Therap. […]; 23(3):215-221; Chen L, Wang T, Wang X et al., “Blockade of advanced glycation end product formation attenuates bleomycin-induced pulmonary fibrosis in rats,” Respiratory Res. 2009; 10:55; Nergiz et al., The Protective Effect of Naringin against Bleomycin-Induced Pulmonary Fibrosis in Wistar Rats. Pulmonary Med. 2016, 12 p, http://dx.doi.org/10.1155/2016/7601393)
(§2) The lung of the animals was removed and rinsed with ice-cold isotonic saline. To the tissues was added 4 ml/g tissue of extraction buffer containing 1 mM phenylmethylsulfonyl fluoride, 1 mg/ml aprotinin and 0.05% Tween 20 in phosphate buffered saline. Tissues were homogenized on ice with a polytron and the homogenate was centrifuged at 5000 g for 15 min. Aliquots of the supernatant were separated and used for biochemical analysis. Supernatants were stored at −80° C. until cytokine analysis (Pandey et al., Multifunctional neuroprotective effect of Withanone, a compound from Withania somnifera roots in alleviating cognitive dysfunction. Cytokine 102 (2018) 211-221). The levels of HIF-1 alpha, TGF-β, IL-13, IL-1β, TNF-α, CCL-17, osteopontin and mucin in the lung tissue homogenate was determined using methods and protocols already reported in scientific literature.
Different concentration of iso-garcinol (5, 10, 20 mg/kg bodyweight) and octahydrocurcumin were first administered to rats and the effect of the compounds in reducing hypoxia related HIF-α was evaluated. […] Thus, iso-garcinol at 10 mg/kg bodyweight and octahydrocurcumin at 150 mg/kg bodyweight was used for the further combination studies.

[2] = Bleomycin induced lung fibrosis in rats: lung index; conditions: (weight of the lung/bodyweight)×100; iso-garcinol 10 mg/kg p.o., octahydrocurcumin 150 mg/kg, alone and combined; normal control 0.75 ± 0.053, fibrosis control 1.39 ± 0.034
Description: as §1
Lung index calculated using the below formula
Lung Index=(weight of the lung/bodyweight)×100

[3] = test system: Collagen-I; assay: Bleomycin induced lung fibrosis in rats: collagen 1 levels; conditions: iso-garcinol 10 mg/kg p.o., octahydrocurcumin 150 mg/kg, alone and combined; normal control 64.25 ± 4.98, fibrosis control 102.43 ± 3.70
Description: (§3) After overnight fasting, the wistar rats were anesthetized (60 mg/kg ketamine HCl and 5 mg/kg xylazine) and a midline incision was made in the neck and the trachea was exposed. A tracheal cannula was inserted under direct visualization into the trachea. Pulmonary fibrosis was induced by intratracheal administration of single dose 0.1 mL of bleomycin (5 mg/kg in 0.9% NaCl). Treatment with the test material was given 5 min after administration of bleomycin for 14 consecutive days. After 14 days, BALF (bronchoalveolar lavage fluid) was obtained. Lung tissue was weighed to determine the lung index. Lung homogenate was stored at −80° C. for analysis of bio-markers. […]
(§4) The lung of the animals was removed and rinsed with ice-cold isotonic saline. […] The levels of HIF-1 alpha, TGF-β, IL-13, IL-1β, TNF-α, CCL-17, osteopontin and mucin in the lung tissue homogenate was determined using methods and protocols already reported in scientific literature.

[4] = test system: TGF-β; assay: Bleomycin induced lung fibrosis in rats: TGF-β in lung tissue homogenate; conditions: iso-garcinol 10 mg/kg, octahydrocurcumin 150 mg/kg bodyweight, individually and in combination, 14 days; for reduction in TGF-β levels: compared to pulmonary fibrosis control group (1721 pg/ml); for TGF-β levels: control group 1721 pg/ml
Description: as §1, §2

[5] = test system: osteopontin; assay: Bleomycin induced lung fibrosis in rats: osteopontin in lung tissue homogenate; conditions: iso-garcinol 10 mg/kg, octahydrocurcumin 150 mg/kg bodyweight, individually and in combination, vs pulmonary fibrosis control (FIG. 7)
Description: as §3, §4

[6] = test system: MUC 5B; assay: Bleomycin induced lung fibrosis in rats: mucin 5B in lung tissue homogenate; conditions: iso-garcinol 10 mg/kg, octahydrocurcumin 150 mg/kg bodyweight, individually and in combination, vs pulmonary fibrosis control (FIG. 8)
Description: as §3, §4

[7] = test system: IL-13; assay: Bleomycin induced lung fibrosis in rats: IL-13 in lung tissue homogenate; conditions: iso-garcinol 10 mg/kg, octahydrocurcumin 150 mg/kg bodyweight, individually and in combination, vs pulmonary fibrosis control (FIG. 4)
Description: as §3, §4

[8] = test system: CCL-17; assay: Bleomycin induced lung fibrosis in rats: CCL-17 in lung tissue homogenate; conditions: iso-garcinol 10 mg/kg, octahydrocurcumin 150 mg/kg bodyweight, individually and in combination, vs pulmonary fibrosis control (FIG. 6)
Description: as §3, §4

[9] = test system: IL-1β; assay: Bleomycin induced lung fibrosis in rats: IL-1β in lung tissue homogenate; conditions: iso-garcinol 10 mg/kg, octahydrocurcumin 150 mg/kg bodyweight, individually and in combination, vs pulmonary fibrosis control (FIG. 5)
Description: as §3, §4

[10] = test system: TNF-α; assay: Bleomycin induced lung fibrosis in rats: TNF-α in lung tissue homogenate; conditions: iso-garcinol 10 mg/kg, octahydrocurcumin 150 mg/kg bodyweight, individually and in combination, vs pulmonary fibrosis control (FIG. 5)
Description: as §3, §4

Row | SMILES | reduction in HIF-α levels [1] | HIF-α levels [1] | Lung index [2] | Collagen-I [3] | reduction in TGF-β levels [4] | TGF-β levels [4] | osteopontin levels [5] | reduction of hypoxia related HIF-α (determination of effective dose) ([1]; bleomycin rats, iso-garcinol 5, 10, 20 mg/kg bodyweight and different doses of octahydrocurcumin (FIG. 1)) | MUC 5B levels [6] | IL-13 levels [7] | CCL-17 levels [8] | IL-1β levels [9] | TNF-α levels [10]
1 | COc1cc(CCC(O)CC(O)CCc2ccc(O)c(OC)c2)ccc1O (stereo not shown) [octahydrocurcumin] | 36.6% | 83.7 pg/mL | 1.02 ± 0.045 | 95.56 ± 4.90 µg/mL | 28.62% | 1228.4 pg/mL | – | – | – | – | – | – | –
2 | CC(C)=CC[C@H]1C[C@@]23C[C@@H](CC=C(C)C)C(C)(C)[C@@](CC=C(C)C)(C(=O)C(C(=O)c4ccc(O)c(O)c4)=C2OC1(C)C)C3=O [iso-garcinol] | 55% | 61.9 pg/mL | 1.19 ± 0.035 | 89.68 ± 3.23 µg/mL | 42.62% | 987.5 pg/mL | reduced | better reduction of HIF-α at 10 mg/kg bodyweight | reduced | significantly reduced | reduced | significantly reduced | significantly reduced

Source: patent US20210220291A1, “THERAPEUTIC COMPOSITIONS AND METHODS FOR PULMONARY FIBROSIS” (priority 2020, published 2021)
